{"source": "paper PMC5347165", "about": "“Killing of Staphylococcus aureus and Salmonella enteritidis and neutralization of lipopolysaccharide by 17-residue bovine lactoferricins: improved activity of Trp/Ala-containing molecules” (Scientific Reports, 2017)", "assay_type_in_all_cases": "cell-based", "details_in_all_cases": "microtiter broth dilution, 10^5 CFU/ml, 16‒18 h at 37 °C; representative of three independent experiments", "key": {"[1]": {"system": "Enterococcus faecium CMCC1.2136", "procedure": "(§1) The MIC values of LfcinB17-33 derivatives against bacteria were determined by the microtiter broth dilution method. Briefly, 10 μl of serially diluted aliquots of peptides were added to each well of 96-well microtiter plates, followed by the addition of 90 μl exponential phase bacteria (10^5 CFU/ml) and incubated for 16‒18 h at 37 °C."}, "Escherichia coli CVCC195": {"system": "Escherichia coli CVCC195", "procedure": "as §1"}, "S. choleraesuis CVCC503": {"system": "S. choleraesuis CVCC503", "procedure": "as §1"}, "S. pullorum CVCC1802": {"system": "S. pullorum CVCC1802", "procedure": "as §1"}, "[2]": {"system": "Streptococcus suis CVCC606", "procedure": "as §1"}}, "note": "Several values for one entry are separate records, joined by “and”; a condition that tells them apart may be missing. Equal entries are not always repeated."}
{"sequence": "FKAWRWAWRMKKLAAPS [Lfcin4, 17-residue LfcinB17-31 derivative, Trp/Ala-containing]", "values": [{"measurement": "MIC", "setting": "[1]", "value": "7.3 μM and 16 μg/ml"}, {"measurement": "MIC", "setting": "Escherichia coli CVCC195", "value": "30 μM and 64 μg/ml"}, {"measurement": "MIC", "setting": "S. choleraesuis CVCC503", "value": "58 μM and 128 μg/ml"}, {"measurement": "MIC", "setting": "S. pullorum CVCC1802", "value": ">58 μM and >128 μg/ml"}, {"measurement": "MIC", "setting": "[2]", "value": "58 μM and 128 μg/ml"}]}
